According to patent publication US7279502B2, “Polyamine analog conjugates and quinone conjugates as therapies for cancers and prostate diseases” (Cellgate, Inc., priority 1999, dated 2007):
Read-outs that look alike come from different tables or passages of the source. One block for each compound: values may come before it.

Assays:
[1] = test system: A549 human large cell hung carcinoma; settings: constant infusion via Alzet pump delivery for 5 days; cited from earlier work
[2] = rats, Kanter et al. (1994); cited from earlier work
[3] = test system: prostate xenograft tumors; settings: nude mice; cited from earlier work
[4] = Creaven et al. (1997); cited from earlier work
[5] = in one study; cited from earlier work
[6] = test system: human prostate adenocarcinoma cell line DU145; assay: MTT assay, quinones, DU145; assay type: cell-based; settings: DU-145, Table 3, treatment time not given in cell, read-out: ID50 DU145
Description: (§1) Cell Culture: The human lung adenocarcinoma cell line, A549, and human prostatic cancer cell line, DUPRO, were a gift from Dr. M. Eileen Dolan, University of Chicago, Department of Medicine. A549 was grown in Ham's F-12K medium (Fisher Scientific, Itasca, Ill.) supplemented with 10% fetal bovine serum and 2 mM L-glutamine. DUPRO was grown in RPMI-1640 supplemented with 10% fetal bovine serum. The human colon carcinoma cell line, HT29, and the human breast carcinoma cell line, MCF7, were obtained from the American Type Culture Collection, Rockville, Md. HT29 cells were grown in McCoy's 5A medium (Gibco, BRL, Gaithersburg, Md.) supplemented with 10% fetal bovine serum. MCF7 cells were grown in Richter's Improved Modified Eagle's medium supplemented with 10% fetal bovine serum and 2.2 g/L sodium bicarbonate. The human prostate adenocarcinoma cell lines, LNCAP, PC-3 and DU145, were gifts from Dr. George Wilding, University of Wisconsin Comprehensive Cancer Center and the Department of Medicine, and were grown in Dulbecco's Modified Eagle's medium supplemented with a 5% fetal bovine serum. The malignant glioma cell line, U251MG NCI was obtained from the brain tumor tissue bank at the University of California, San Francisco Department of Neurosurgery, and was grown in Dulbecco's Modified Eagle's medium supplemented wth 10% fetal bovine serum. DUPRO, A549 and MCF7 cells were grown in 100 units/mL penicillin and 100 μg/mL streptomycin. HT29 and U251MG NCI cells were grown in 50 μg/mL gentamycin. LNCAP, PC-3 and DU145 cells were maintained in 1% antibiotic antimycotic solution (Sigma, St. Louis, Mo.). All cell cultures were maintained at 37° C. in 5% CO2/95% humidified air.
(§2) MTT assay. Exponentially growing monolayer cells were plated in 96 well plates at a density of 500 cells/well and allowed to grow for 24 h. Serially diluted drug solutions were added such that the final drug concentrations in the treatment media were between 0 and 35 μM. […] A microplate reader (E max, Molecular Devices, Sunnyvale, Calif.) set at 570 nm was used to determine the optical density. […]

[7] = test system: human prostate adenocarcinoma cell line PC-3; assay: MTT assay, quinones, PC-3; assay type: cell-based; settings: Table 3, treatment time not given in cell, read-out: ID50 PC-3
Description: as §1
(§3) MTT assay. Exponentially growing monolayer cells were plated in 96 well plates at a density of 500 cells/well and allowed to grow for 24 h. Serially diluted drug solutions were added such that the final drug concentrations in the treatment media were between 0 and 35 μM. Cells were incubated with drug at either 4 hr or 72 hr. After 4 hr and 72 hr treatment, drugs were removed, fresh media (without) drug (100 uL) was added and cells were incubated for 6 days. After six days, 25 μL of a Dulbecco's phosphate-buffered saline solution containing 5 mg/mL of MTT (Thiazolyl blue) (Sigma) was added to each well and incubated for 4 h at 37° C. Then 100 μL of lysis buffer (20% sodium dodecyl sulfate, 50% N,N-dimethylformamide and 0.8% acetic acid, pH 4.7) was added to each well and incubated for an additional 22 h. A microplate reader (E max, Molecular Devices, Sunnyvale, Calif.) set at 570 nm was used to determine the optical density. Results were plotted as a ratio of the optical density in drug treated wells to the optical density in wells treated with vehicle alone. Plotting and estimation of ID50 values were accomplished with manufacturer supplied software. The data is presented below in Tables 3, 4, 5 and 6.

[8] = test system: human prostatic cancer cell line, DUPRO; assay: MTT assay, quinones, DUPRO; assay type: cell-based; settings: Table 3, treatment time not given in cell, read-out: ID50 DUPRO
Description: as §1, §2

[9] = test system: malignant glioma cell line, U251MG NCI; assay: MTT assay, quinones, U251MG NCI; assay type: cell-based, human; settings: read-out: ID50 Brain U251-MG
Description: as §1, with “The malignant glioma cell line, U251MG NCI was obtained from the brain tumor tissue bank at the University of California, San Francisco Department of Neurosurgery, and was grown in Dulbecco's Modified Eagle's medium supplemented wth 10% fetal bovine serum. DUPRO, A549 and MCF7 cells were grown in 100 units/mL penicillin and 100 μg/mL streptomycin. HT29 and U251MG NCI cells were grown in 50 μg/mL gentamycin. LNCAP, PC-3 and DU145 cells were maintained in 1% antibiotic antimycotic solution (Sigma, St. Louis, Mo.). All cell cultures were maintained at 37° C. in 5% CO2/95% humidified air.” left out
MTT assay. […] A microplate reader (E max, Molecular Devices, Sunnyvale, Calif.) set at 570 nm was used to determine the optical density. […]

[10] = test system: human breast carcinoma cell line, MCF7; assay: MTT assay, quinones, MCF7; assay type: cell-based; settings: Table 4, treatment time not given in cell, read-out: ID50 Breast MCF7
Description: as §1, §3

[11] = test system: human lung cancer cells A549; assay: MTT assay, polyamine analogs, A549; assay type: cell-based; settings: Homo sapiens
Description: (§4) As shown in Table 2 and FIGS. 1-32, several novel conformationally restricted polyamine analogs were tested for anti-proliferative properties against cancer cells.
(§5) Human breast cancer cell line MCF7 was grown in Richter's Improved Modified Eagle's Medium supplemented with 10% fetal bovine serum (FBS) and 2.2 g/L sodium bicarbonate. Human brain tumor cell line U251 MG-NCI was grown in Dulbecco's Modified Eagle's Medium supplemented with 10% FBS. Human lung cancer cell line A549 was grown in Ham's F-12K medium (Cellgro, Mediatech, Inc., VA), supplemented with 10% FBS and 2 mM L-glutamine. Human colon cancer cell line HT29 was cultured in McCoy's 5A medium (Gibco, BRL, Gaithersburg, Md.) supplemented with 10% FBS. Human prostate cancer cell lines PC-3, LNCAP and DuPro were grown in RPMI 1640 Medium (Cellgro, Mediatech, Inc., VA) supplemented with 10% FBS. Another human prostate cancer cell line DU145 was grown in Dulbecco's Modified Eagle's Medium (Gibco, BRL, Gaithersburg, Md.) supplemented with 5% FBS. The A549, MCF7, PC3, LNCAP and DuPro cell lines were cultured in 100 units/mL penicillin and 100 μg/mL streptomycin. HT29 and U251MG cell lines were grown in 50 μg/mL gentamycin (Gibco, BRL, Gaithersburg, Md.). DU145 cell line was maintained in 1% antibitic-antimycotic solution (Sigma, St. Louis, Mo.). The cell cultures were maintained at 37° C. in 5% CO2/95% humidified air. DuPro cells were obtained from M. Eileen Dolan, University of Chicago. All other cells are available from the American Type Culture Collection, Rockville, Md.
(§6) A conventional MTT assay was used to evaluate percent cell survival. Exponentially growing monolayer cells were plated in 96-well plates at a density of 500 cells per well and allowed to grow for 24 hours. Serial dilutions of the drugs were added to the wells. Six days after drug treatment, 25 μl of MTT solution (5 mg/ml) was added to each well and incubated for 4 hours at 37° C. Then 100 μl of lysis buffer (20% sodium dodecyl sulfate, 50% DMF, and 0.8% acetic acid, pH 4.7) was added to each well and incubated for an additional 22 hours. A microplate reader (“EMAX”-brand, Molecular Devices, Sunnyvale, Calif.) set at 570 nm was used to determine the optical density of the cultures. Results are expressed as a ratio of the optical density in drug-treated wells to the optical density in wells treated with vehicle only.

[12] = test system: human breast cancer cells MCF7; assay: MTT assay, polyamine analogs, MCF7; assay type: cell-based
Description: as §4, §5, §6

[13] = test system: human prostate cancer cells DUPRO; assay: MTT assay, polyamine analogs, DUPRO; assay type: cell-based; settings: Homo sapiens, DuPro
Description: as §5, §6

[14] = test system: human colon cancer cells HT29; assay: MTT assay, polyamine analogs, HT29; assay type: cell-based
Description: as §4, §5, §6

[15] = test system: human brain tumor cells U251 MG NCI; assay: MTT assay, polyamine analogs, U251 MG NCI; assay type: cell-based
Description: as §5, §6

[16] = test system: human prostate cancer cells LNCAP; assay: MTT assay, polyamine analogs, LNCAP; assay type: cell-based; settings: Homo sapiens, LNCaP, survival of cultured LNCAP cells, figure legends; read-out: ED50 (the source's name)
Description: as §5
A conventional MTT assay was used to evaluate percent cell survival. Exponentially growing monolayer cells were plated in 96-well plates at a density of 500 cells per well and allowed to grow for 24 hours. Serial dilutions of the drugs were added to the wells. Six days after drug treatment, 25 μl of MTT solution (5 mg/ml) was added to each well and incubated for 4 hours at 37° C. […] A microplate reader (“EMAX”-brand, Molecular Devices, Sunnyvale, Calif.) set at 570 nm was used to determine the optical density of the cultures. Results are expressed as a ratio of the optical density in drug-treated wells to the optical density in wells treated with vehicle only.

[17] = test system: human prostate cancer cells DU145; assay: MTT assay, polyamine analogs, DU145; assay type: cell-based; settings: Homo sapiens
Description: as §5, §6

[18] = test system: human prostate cancer cells PC3; assay: MTT assay, polyamine analogs, PC3; assay type: cell-based; settings: PC-3, survival of cultured PC3 cells, figure legends, read-out: ED50 (the source's name)
Description: as §5, §6

tumor cell lines = assay: In vitro anti-proliferative testing, summary statements; assay type: cell-based, human; settings: FIGS. 57-59: PC3, DUPRO, LNCAP
Description: as §6

SMILES: CCNCCCNCCCNCCCNCC [BE-333, N1,N11-diethylnorspermine]
anti-tumor activity, effect of schedule [1]: dramatically improves the anti-tumor activity
toxicity on administration [2]: labored breathing, convulsive movements and acute death
inhibition of prostate xenograft tumors [3]: particularly effective in inhibiting prostate xenograft tumors in nude mice
side effects [4]: headache, nausea and vomiting, unilateral weakness, dysphagia, dysarthria, numbness, paresthesias, and ataxia

SMILES: CCNCCCNCCCCCCCNCCCNCC [BE-373]
inhibition of prostate xenograft tumors [3]: particularly effective in inhibiting prostate xenograft tumors in nude mice

SMILES: CCNCCCCNCCCCNCCCCNCCCCNCC [BE-4444, 1,19-bis(ethylamino)-5,10,15-triazanonadecane]
inhibition of prostate xenograft tumors [3]: particularly effective in inhibiting prostate xenograft tumors in nude mice

SMILES: CC(/C=N/NC(=N)N)=N\NC(=N)N [MGBG, methylglyoxal-bis-guanylhydrazone]
side effects, drug deaths [5]: drug deaths occurred in over half of treated animals

IC50 [6]: 11200 nM
IC50 [7]: 17100 nM
IC50 [8]: 19300 nM
SMILES: O=C1C=C(OCCCCCCO)c2ccccc2C1=O [SL-11051]

SMILES: CC1(C)CCC2=C(O1)c1ccccc1C(=O)C2=O [SL-11058]
IC50 ([9]; Table 6, non-quinone compounds): > 31200 nM

IC50 [10]: 17200 nM
SMILES: O=C1C=C(OCCCCCNC2CCCCC2)c2ccccc2C1=O [SL-11060]
IC50 ([9]; Homo sapiens, U-251, Table 4, treatment time not given in cell): > 31200 nM

IC50 [6]: 130 nM
IC50 [7]: 700 nM
IC50 [8]: 2200 nM
SMILES: O=C1C=C(OCCCCCCCc2ccc(Nc3c4ccccc4nc4ccccc34)cc2)c2ccccc2C1=O [SL-11064, Quinone-anilinoacridine]

IC50 ([11]; A549, 144 h, read-out: concentration needed for 50% growth inhibition (ID50) A549, Table 2, MTT six days after drug treatment): > 31200 nM
IC50 ([12]; MCF7, 144 h, read-out: concentration needed for 50% growth inhibition (ID50) MCF7, Table 2, MTT six days after drug treatment): > 31200 nM
IC50 ([13]; 144 h, read-out: concentration needed for 50% growth inhibition (ID50) DUPRO, Table 2, MTT six days after drug treatment): 980 nM
IC50 ([14]; HT-29, 144 h, read-out: concentration needed for 50% growth inhibition (ID50) HT-29, Table 2, MTT six days after drug treatment): 2000 nM
IC50 ([17]; DU-145, 144 h, read-out: concentration needed for 50% growth inhibition (ID50) DU-145, Table 2, MTT six days after drug treatment): 130 nM
SMILES: CCNC/C=C\CNC/C=C\CNC/C=C\CNCC [SL-11108]
EC50 ([11]; A549, survival of cultured A549 cells, figure legends, read-out: ED50 (the source's name)): > 31200 nM
EC50 ([12]; MCF7, survival of cultured MCF7 cells, figure legends, read-out: ED50 (the source's name)): > 31200 nM
EC50 ([13]; survival of cultured DUPRO cells, figure legends, read-out: ED50 (the source's name)): 980 nM
EC50 ([14]; HT-29, survival of cultured HT29 cells, figure legends, read-out: ED50 (the source's name)): 2000 nM
IC50 ([15]; U-251, 144 h, read-out: concentration needed for 50% growth inhibition (ID50) U251MG, Table 2, MTT six days after drug treatment): 2000 nM
EC50 ([15]; U-251, survival of cultured U251 MG NCI cells, figure legends, read-out: ED50 (the source's name)): 2000 nM
EC50 [16]: 7700 nM
EC50 ([17]; DU-145, survival of cultured DU145 cells, figure legends, read-out: ED50 (the source's name)): 130 nM
EC50 [18]: 2200 nM

IC50 [6]: 130 nM
IC50 [7]: 5900 nM
IC50 [10]: 5100 nM
IC50 [8]: 7900 nM
SMILES: O=C1C=C(CCCCCCCCc2ccc(Nc3c4ccccc4nc4ccccc34)cc2)c2ccccc2C1=O [SL-11125, Quinone-acridine]

SMILES: CCNCCCCNCCCCNCCCCNCCCCNCCO [SL-11141]
effectiveness against tumor cell lines in vitro (tumor cell lines): display effectiveness against tumor cell lines in vitro
